According to patent publication US20250154198A1, “PEPTIDE INHIBITORS OF INTERLEUKIN-23 RECEPTOR” (Zealand Pharma A/S, priority 2021, published 2025):
pIC50, pKi: −log10 of the molar value. Like-named read-outs stand apart in the source and are kept apart here. Where a SMILES comes first, the peptide text is derived from it.

Key:
human IL-23R = biological target: T1, human IL-23R (Homo sapiens, UniProt Q5VWK5); test: Binding assay (NanoBRET displacement of fluorophore-labelled reference compound) for estimating binding affinity to human IL-23R
T1 construct: UniProtKB—Q5VWK5, amino acids 22-629; secretion signal of the plasmid (Promega N1371); expressed in transfected cells
T1 sequence (Q5VWK5 22-629): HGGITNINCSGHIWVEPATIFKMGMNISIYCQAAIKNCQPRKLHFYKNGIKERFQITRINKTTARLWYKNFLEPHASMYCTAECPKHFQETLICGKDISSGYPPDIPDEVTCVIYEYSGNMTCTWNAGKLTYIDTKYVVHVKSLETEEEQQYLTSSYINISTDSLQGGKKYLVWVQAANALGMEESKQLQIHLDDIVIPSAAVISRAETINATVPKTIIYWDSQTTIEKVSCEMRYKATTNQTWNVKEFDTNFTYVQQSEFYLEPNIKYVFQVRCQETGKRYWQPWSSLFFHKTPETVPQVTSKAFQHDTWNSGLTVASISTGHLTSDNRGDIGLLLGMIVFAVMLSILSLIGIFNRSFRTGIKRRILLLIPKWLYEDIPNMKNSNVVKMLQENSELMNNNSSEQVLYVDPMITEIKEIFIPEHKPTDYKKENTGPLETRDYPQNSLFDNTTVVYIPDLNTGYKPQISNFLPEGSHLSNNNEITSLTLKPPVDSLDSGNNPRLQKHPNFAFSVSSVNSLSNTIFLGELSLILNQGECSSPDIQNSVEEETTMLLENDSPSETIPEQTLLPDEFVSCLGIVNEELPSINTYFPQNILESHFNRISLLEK

[1] = biological target: IL-23 mediated phospho-STAT3 formation in DB cells (Homo sapiens, UniProt Q5VWK5); test: Functional inhibition of IL-23 mediated STAT3 signalling (phospho-STAT3 Tyr705 MSD) in DB cells; format: cell-based; conditions: DB cells, read-out: IC50 (pSTAT3)
From the text: Functional Inhibition of IL-23 Mediated STAT3 Signalling by Compounds
Upon binding of IL-23, the IL-23R forms a heterodimer signalling complex together with IL-12R β1, which through the JAK2/STAT3 pathway promotes phosphorylation of STAT3 to form phospho-STAT3.
The assay was used to quantify the functional antagonism of a compound and to rank order the inhibitor compounds according to their potency. For compounds tested in this assay, the response was normalized relative to control values to calculate the IC50 and maximal inhibitory response from a concentration response curve of the compound in presence of a fixed concentration of human IL-23.
The assay procedure was as follows. […] Following preincubation of the DB cells with inhibitor for 15 min in a cell incubator (37° C., 5% CO2), 20 μL of the prepared 3× the EC80 of hIL-23 solution was added to each well and incubated for 90 min in a cell incubator (37° C., 5% CO2). For some wells buffer only or IL-23 only corresponding to the EC80 was added to obtain readouts needed for normalization. To terminate the assay, the plate was spun at 1000 G for 5 min to pellet cells, the supernatant removed using an 8-channel manual pipette, and then added 50 μL/well Complete Lysis Buffer from the MSD STAT3 kit (Cat #K150SVD, Mesoscale) to the cell pellet. To completely lyse cells to release phospho-STAT3 for detection, the plate was shaken for 10 min at room temperature (500 rpm) sealed with aluminum foil and placed at −80° C. for a minimum of 15 min. Detection of the phospho-STAT3 level in the cell lysate from the individual wells was determined using the MSD STAT3 kit (Cat #K150SVD, Mesoscale) and read on a Meso QuickPlex SQ 120 plate reader (Mesoscale).
For data analysis raw data counts from the Meso QuickPlex SQ 120 plate reader were normalized relative to the response by the EC80 of hIL-23 alone (no compound added) and the buffer level. Compound potency (IC50) and maximal inhibitory response (% inhibition) were estimated by computer-aided curve fitting using a 4-parameter logistic (4PL) non-linear model.

[2] = Table 3-1, read-out: Ki hIL-23R

SMILES	pKi (human IL-23R; [2])	pIC50 ([1]; Table 3-1)	other results
CC(C)C[C@@H]1NC(=O)[C@H](Cc2c[nH]c3ccccc23)NC(=O)[C@H](Cc2c[nH]c3ccccc23)NC(=O)[C@@H]2CSCC(=O)CSC[C@H](NC(=O)[C@H](CO)NC(=O)[C@H](CC(=O)O)NC(=O)[C@H](CCCNC(=N)N)NC1=O)C(=O)N[C@@H](Cc1c[nH]c3ccccc13)C(=O)N[C@@H](CCC(N)=O)C(=O)N2 [Compound 6, D(1c)*SC(2a)WQC(2a)WWLR(1c)*] (HELM PEPTIDE1{C.W.Q.C.W.W.L.R.D.S}|CHEM1{[O=C(C[*:1])C[*:2]]}$PEPTIDE1,CHEM1,1:R3-1:R1|PEPTIDE1,CHEM1,4:R3-1:R2|PEPTIDE1,PEPTIDE1,1:R1-10:R2$$$V2.0)	< 6.00	< 6.00	
CC(=O)N[C@@H](CC(=O)O)C(=O)N[C@H]1CCC(=O)NCCCC[C@@H](C(=O)N[C@@H](CCCNC(=N)N)C(N)=O)NC(=O)[C@H](Cc2c[nH]c3ccccc23)NC(=O)[C@H](Cc2c[nH]c3ccccc23)NC(=O)[C@@H]2CSCC(=O)CSC[C@H](NC(=O)[C@H](CO)NC1=O)C(=O)N[C@@H](Cc1c[nH]c3ccccc13)C(=O)N[C@@H](CCC(N)=O)C(=O)N2 [Ref 7, [Ac]-DE(1c)SC(2a)WQC(2a)WWK(1c)R-[NH2], reference compound] (HELM PEPTIDE1{[ac].D.E.S.C.W.Q.C.W.W.K.R.[am]}|CHEM1{[O=C(C[*:1])C[*:2]]}$PEPTIDE1,PEPTIDE1,3:R3-11:R3|PEPTIDE1,CHEM1,5:R3-1:R1|PEPTIDE1,CHEM1,8:R3-1:R2$$$V2.0)	< 6.00	< 6.00	IL-23R inhibitory activity (in words) (human IL-23R; with reference to Ki and IC50 data of the Examples): inactive
CC(=O)N[C@@H](CC(=O)O)C(=O)N[C@H]1CCC(=O)NCCCC[C@@H](C(=O)N[C@@H](CCCNC(=N)N)C(N)=O)NC(=O)[C@H](CC(C)C)NC(=O)[C@H](Cc2c[nH]c3ccccc23)NC(=O)[C@H](Cc2c[nH]c3ccccc23)NC(=O)[C@@H]2CSCC(=O)CSC[C@H](NC(=O)[C@H](CO)NC1=O)C(=O)N[C@@H](Cc1c[nH]c3c(C)cccc13)C(=O)N[C@@H](CCC(N)=O)C(=O)N2 [Compound 16, [Ac]-DE(1c)SC(2a)[7-Me-Trp]QC(2a)WWLK(1c)R-[NH2]] (HELM PEPTIDE1{[ac].D.E.S.C.[Cc1cccc2c(C[C@H](N[*:1])C(=O)[*:2])c[nH]c12].Q.C.W.W.L.K.R.[am]}|CHEM1{[O=C(C[*:1])C[*:2]]}$PEPTIDE1,PEPTIDE1,3:R3-12:R3|PEPTIDE1,CHEM1,5:R3-1:R1|PEPTIDE1,CHEM1,8:R3-1:R2$$$V2.0)			pKi (human IL-23R; Table 2-5b, read-out: Ki IL-23R): 7.02; pIC50 ([1]; Table 2-5b): 6.34
CC(C)C[C@@H]1NC(=O)[C@H](Cc2c[nH]c3ccccc23)NC(=O)[C@H](Cc2c[nH]c3ccccc23)NC(=O)[C@H](Cc2ccc(O)cc2)NC(=O)[C@H](CCC(N)=O)NC(=O)[C@H](Cc2c[nH]c3ccccc23)NC(=O)[C@H]([C@@H](C)O)NC(=O)[C@H](CO)NC(=O)[C@@H](NC(=O)[C@@H](N)CC(=O)O)CCC(=O)NCCCC[C@@H](C(=O)N[C@@H](CCCNC(=N)N)C(N)=O)NC1=O [Ref 3, reference compound] (HELM PEPTIDE1{D.E.S.T.W.Q.Y.W.W.L.K.R.[am]}$PEPTIDE1,PEPTIDE1,2:R3-11:R3$$$V2.0)	< 6.00	< 6.00	
CC(=O)N[C@@H](CC(=O)O)C(=O)N[C@H]1CCC(=O)NCCCC[C@@H](C(=O)N[C@@H](CCCNC(=N)N)C(N)=O)NC(=O)[C@H](CC(C)C)NC(=O)[C@H](C)NC(=O)[C@H](Cc2c[nH]c3ccccc23)NC(=O)[C@@H]2CSCC(=O)CSC[C@H](NC(=O)[C@H](CO)NC1=O)C(=O)N[C@@H](Cc1c[nH]c3ccccc13)C(=O)N[C@@H](CCC(N)=O)C(=O)N2 [Compound 15, [Ac]-DE(1c)SC(2a)WQC(2a)WALK(1c)R-[NH2]] (HELM PEPTIDE1{[ac].D.E.S.C.W.Q.C.W.A.L.K.R.[am]}|CHEM1{[O=C(C[*:1])C[*:2]]}$PEPTIDE1,PEPTIDE1,3:R3-12:R3|PEPTIDE1,CHEM1,5:R3-1:R1|PEPTIDE1,CHEM1,8:R3-1:R2$$$V2.0)	< 6.00	< 6.00	
CC(C)C[C@@H]1NC(=O)[C@H](Cc2c[nH]c3ccccc23)NC(=O)[C@H](Cc2c[nH]c3ccccc23)NC(=O)[C@H](CO)NC(=O)[C@H](CCC(N)=O)NC(=O)[C@H](Cc2c[nH]c3ccccc23)NC(=O)[C@H](CO)NC(=O)[C@H](CO)NC(=O)[C@@H](NC(=O)[C@@H](N)CC(=O)O)CCC(=O)NCCCC[C@@H](C(=O)N[C@@H](CCCNC(=N)N)C(N)=O)NC1=O [Ref 2, reference compound] (HELM PEPTIDE1{D.E.S.S.W.Q.S.W.W.L.K.R.[am]}$PEPTIDE1,PEPTIDE1,2:R3-11:R3$$$V2.0)	< 6.00	< 6.00	
CC(=O)N[C@@H](CC(=O)O)C(=O)N[C@H]1CCCCNC(=O)CC[C@@H](C(=O)N[C@@H](CCCNC(=N)N)C(N)=O)NC(=O)[C@H](CC(C)C)NC(=O)[C@H](Cc2ccc3ccccc3c2)NC(=O)[C@H](Cc2c[nH]c3ccccc23)NC(=O)[C@@H]2CSCC(=O)CSC[C@H](NC(=O)[C@H](CO)NC1=O)C(=O)N[C@@H](Cc1c[nH]c3ccccc13)C(=O)N[C@@H](CCC(N)=O)C(=O)N2 [Compound 19, [Ac]-DK(1c)SC(2a)WQC(2a)W[2-Nal]LE(1c)R-[NH2]] (HELM PEPTIDE1{[ac].D.K.S.C.W.Q.C.W.[O=C([C@H](Cc1ccc2ccccc2c1)N[*:1])[*:2]].L.E.R.[am]}|CHEM1{[O=C(C[*:1])C[*:2]]}$PEPTIDE1,PEPTIDE1,3:R3-12:R3|PEPTIDE1,CHEM1,5:R3-1:R1|PEPTIDE1,CHEM1,8:R3-1:R2$$$V2.0)			pKi (human IL-23R; Table 2-6b, read-out: Ki IL-23R): 8.20; pIC50 ([1]; Table 2-6b): 7.49
CC(=O)N[C@@H](CC(=O)O)C(=O)N[C@H]1CCCCNC(=O)CC[C@@H](C(=O)N[C@@H](CCCNC(=N)N)C(N)=O)NC(=O)[C@H](CC(C)C)NC(=O)[C@H](Cc2ccc3ccccc3c2)NC(=O)[C@H](Cc2c[nH]c3ccccc23)NC(=O)[C@@H]2CSCc3cccc(c3)CSC[C@H](NC(=O)[C@H](CO)NC1=O)C(=O)N[C@@H](Cc1c[nH]c3ccccc13)C(=O)N[C@@H](CCC(N)=O)C(=O)N2 [Compound 21, [Ac]-DK(1c)SC(2e)WQC(2e)W[2-Nal]LE(1c)R-[NH2]] (HELM PEPTIDE1{[ac].D.K.S.C.W.Q.C.W.[O=C([C@H](Cc1ccc2ccccc2c1)N[*:1])[*:2]].L.E.R.[am]}|CHEM1{[c1cc(C[*:1])cc(C[*:2])c1]}$PEPTIDE1,PEPTIDE1,3:R3-12:R3|PEPTIDE1,CHEM1,5:R3-1:R1|PEPTIDE1,CHEM1,8:R3-1:R2$$$V2.0)		< 6.00	pKi (human IL-23R; Table 2-7b, read-out: Ki IL-23R): 6.20; pIC50 ([1]; Table 2-7b): < 6.00
CC(=O)N[C@H]1CCC(=O)NCCCC[C@@H](C(=O)N[C@@H](CCCNC(=N)N)C(N)=O)NC(=O)[C@H](CC(C)C)NC(=O)[C@H](Cc2c[nH]c3ccccc23)NC(=O)[C@H](Cc2c[nH]c3ccccc23)NC(=O)[C@@H]2CSCC(=O)CSC[C@H](NC(=O)[C@H](CO)NC1=O)C(=O)N[C@@H](Cc1c[nH]c3ccccc13)C(=O)N[C@@H](CCC(N)=O)C(=O)N2 [Compound 10, [Ac]-E(1c)SC(2a)WQC(2a)WWLK(1c)R-[NH2]] (HELM PEPTIDE1{[ac].E.S.C.W.Q.C.W.W.L.K.R.[am]}|CHEM1{[O=C(C[*:1])C[*:2]]}$PEPTIDE1,PEPTIDE1,2:R3-11:R3|PEPTIDE1,CHEM1,4:R3-1:R1|PEPTIDE1,CHEM1,7:R3-1:R2$$$V2.0)			pKi (human IL-23R; Table 2-4b, read-out: Ki IL-23R): 7.00; pIC50 ([1]; Table 2-4b): 6.21
